Some test systems named below: OVCAR-8 ovarian; KM12 colon; UACC-62 melanoma; OVCAR-4 ovarian; OVCAR-5 ovarian; HL-60(TB) leukemia; SN12C renal; LOX IMVI melanoma; SF-268 CNS; T-47D breast; NCI/ADR-RES ovarian; IGROV1 ovarian; OVCAR-3 ovarian.
What all share (test): NCI-60 cell line screen, 48 h

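Five compound concentrations were applied to cells in 96-well plates for 48 hours; endpoints were derived by simple linear interpolation of the resulting dose-response curve. The concentration for full growth arrest is given as TGI.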

Turning to `CC1(C)O[C@H]2[C@@H]3N=C(c4ccccc4)O[C@@H]3C=C[C@H]2O1`, the TGI in the assay on OVCAR-8 ovarian, with KM12 colon, in the assay on UACC-62 melanoma, in the assay on OVCAR-4 ovarian, with OVCAR-5 ovarian and in the assay with HL-60(TB) leukemia was over 100 µM throughout. The TGI is over 100 µM in the assay on SN12C renal; over 100 µM with LOX IMVI melanoma; 33.4 µM in the assay on SF-268 CNS; over 100 µM in the assay with T-47D breast; over 100 µM with NCI/ADR-RES ovarian; over 100 µM in the assay on IGROV1 ovarian. The same compound had a TGI in the assay on OVCAR-3 ovarian of over 100 µM.

`COP(=O)(OC)C(O)/C=C(\Cl)c1ccc(Cl)cc1` (configuration not stated): the TGI was 54.6 µM in the assay with OVCAR-8 ovarian; over 100 µM with KM12 colon; over 100 µM with UACC-62 melanoma; over 100 µM in the assay with OVCAR-4 ovarian; over 100 µM in the assay on OVCAR-5 ovarian; over 100 µM in the assay on HL-60(TB) leukemia. Moreover, the TGI in the assay with SN12C renal was over 100 µM; in the assay with LOX IMVI melanoma, 52.1 µM; in the assay on SF-268 CNS it was over 100 µM; in the assay with T-47D breast, over 100 µM; in the assay on NCI/ADR-RES ovarian, 55.7 µM; in the assay with IGROV1 ovarian it was over 100 µM. This compound also registered a TGI with OVCAR-3 ovarian of 43.3 µM.

With `COc1cc(C2c3[nH]c4ccc(F)cc4c3C[C@H]3COC(=O)N23)cc(OC)c1O` (some centres not stated), the TGI in the assay on OVCAR-8 ovarian was 39.3 µM; in the assay on KM12 colon it was 26.3 µM; with UACC-62 melanoma, 32.6 µM; in the assay with OVCAR-4 ovarian, 79.7 µM; with OVCAR-5 ovarian it was 49.2 µM; in the assay with HL-60(TB) leukemia it was 38.1 µM. Further, the TGI in the assay on SN12C renal is 35.5 µM; in the assay on LOX IMVI melanoma, 31.3 µM; in the assay with SF-268 CNS, 64.5 µM; with T-47D breast, over 100 µM; with NCI/ADR-RES ovarian, over 100 µM; in the assay with IGROV1 ovarian, over 100 µM. For the same compound, the TGI with OVCAR-3 ovarian is 56 µM.

Regarding `O=C1NC(N/N=C/c2ccccc2)=N/C1=C\c1cccs1`, the TGI in the assay with OVCAR-8 ovarian was 29.3 µM; in the assay on KM12 colon, over 70.9 µM; with UACC-62 melanoma it was 38 µM; in the assay on OVCAR-4 ovarian it was over 68.9 µM; in the assay with OVCAR-5 ovarian it was 70.8 µM; in the assay with HL-60(TB) leukemia it was 36.7 µM. The TGI is 46.4 µM in the assay with SN12C renal; 23.4 µM in the assay with LOX IMVI melanoma; 30.3 µM in the assay on SF-268 CNS; over 100 µM in the assay with T-47D breast; 37.6 µM with NCI/ADR-RES ovarian; 34.4 µM in the assay with IGROV1 ovarian. The compound further displayed a TGI in the assay on OVCAR-3 ovarian of 33.9 µM.

On to `O=C(N/N=C/C=C/c1ccc([N+](=O)[O-])o1)c1ccc(Br)s1`, for which the TGI in the assay with OVCAR-8 ovarian was 46.7 µM; with KM12 colon, 40.5 µM; in the assay with UACC-62 melanoma it was 49.5 µM; with OVCAR-4 ovarian, 40.2 µM; with OVCAR-5 ovarian, 59.7 µM; in the assay with HL-60(TB) leukemia, 87.2 µM. For the same compound, the TGI was 70.5 µM in the assay with SN12C renal; 60.7 µM in the assay with LOX IMVI melanoma; 98.4 µM in the assay with SF-268 CNS; 65.5 µM with T-47D breast; 57.4 µM in the assay on NCI/ADR-RES ovarian; 16.4 µM in the assay with IGROV1 ovarian. Further, the TGI in the assay on OVCAR-3 ovarian was determined as 41.7 µM.

In the case of `CCCN1CN(c2ccccc2)C2(CCN(CCCC(=O)c3ccc(F)cc3)CC2)C1=O`, the TGI in the assay on OVCAR-8 ovarian worked out at 32.6 µM; in the assay with KM12 colon it was 31 µM; in the assay on UACC-62 melanoma it was 31.3 µM; with OVCAR-4 ovarian it was 20.2 µM; in the assay on OVCAR-5 ovarian it was 20.2 µM; in the assay on HL-60(TB) leukemia, 40.2 µM. For the same compound, the TGI with SN12C renal is 15.5 µM; in the assay with LOX IMVI melanoma, 17.1 µM; with SF-268 CNS, 23.8 µM; in the assay on T-47D breast, 35 µM; in the assay on NCI/ADR-RES ovarian, 17.6 µM; in the assay with IGROV1 ovarian, 14.8 µM. The TGI in the assay on OVCAR-3 ovarian came out at 30.3 µM.

With `c1ccc2c(c1)CCN1CCc3c([nH]c4ccccc34)C21` (configuration not stated), the TGI with OVCAR-8 ovarian is over 100 µM; with KM12 colon it was over 100 µM; in the assay with UACC-62 melanoma it was over 100 µM; in the assay with OVCAR-4 ovarian, over 100 µM; with OVCAR-5 ovarian, over 100 µM; with HL-60(TB) leukemia, 34.3 µM. Further, the TGI in the assay with SN12C renal is over 100 µM; in the assay with LOX IMVI melanoma, 53.1 µM; in the assay with SF-268 CNS, over 100 µM; in the assay on T-47D breast it was over 100 µM; with NCI/ADR-RES ovarian, 56.9 µM; with IGROV1 ovarian, over 100 µM. The TGI with OVCAR-3 ovarian was 66.7 µM.

With `COc1ccc(C(=O)Cn2c(C(C)=O)nc3ccccc32)cc1`, the TGI was over 44.5 µM in the assay on OVCAR-8 ovarian; over 100 µM in the assay with KM12 colon; over 92.9 µM with UACC-62 melanoma; over 100 µM in the assay on OVCAR-4 ovarian; over 100 µM with OVCAR-5 ovarian; over 43.8 µM in the assay with HL-60(TB) leukemia. Moreover, the TGI in the assay with SN12C renal was over 100 µM; in the assay with LOX IMVI melanoma, over 46.4 µM; with SF-268 CNS, over 100 µM; with T-47D breast, over 78.7 µM; with NCI/ADR-RES ovarian it was over 100 µM; with IGROV1 ovarian it was over 100 µM. The TGI in the assay with OVCAR-3 ovarian is over 100 µM.

On to `O=C(O)CSc1nnc(CCCCCCCCc2nnc(SCC(=O)O)o2)o1`, for which the TGI with OVCAR-8 ovarian, with KM12 colon, in the assay on UACC-62 melanoma, with OVCAR-4 ovarian, with OVCAR-5 ovarian and in the assay on HL-60(TB) leukemia was over 100 µM throughout. In addition, the TGI in the assay on SN12C renal, in the assay on LOX IMVI melanoma, in the assay on SF-268 CNS, with T-47D breast, with NCI/ADR-RES ovarian and in the assay with IGROV1 ovarian was over 100 µM throughout.

For the compound `COc1ccc(N2CCN(Cc3c(C(C)=O)[n+](=O)c4ccccc4n3[O-])CC2)cc1`, the TGI with OVCAR-8 ovarian, in the assay on KM12 colon, in the assay with UACC-62 melanoma, in the assay on OVCAR-4 ovarian, with OVCAR-5 ovarian and with HL-60(TB) leukemia was over 100 µM each time. The TGI with SN12C renal, with LOX IMVI melanoma, in the assay with SF-268 CNS, in the assay on T-47D breast, in the assay on NCI/ADR-RES ovarian and in the assay with IGROV1 ovarian was over 100 µM in each case. In the assay with OVCAR-3 ovarian, this compound had a TGI of over 100 µM.

As to `CC1(C)CCCCCC(C)(CCCCCCCCCCCO)C1=O` (configuration not stated), the TGI in the assay on OVCAR-8 ovarian amounted to 31.2 µM; with KM12 colon it was 32.7 µM; with UACC-62 melanoma it was 29.4 µM; in the assay on OVCAR-4 ovarian, 28.8 µM; in the assay on OVCAR-5 ovarian it was 31.2 µM; with HL-60(TB) leukemia, 31.8 µM. Besides, the TGI was found to be 29.9 µM in the assay on SN12C renal; 28.7 µM with LOX IMVI melanoma; 30.2 µM in the assay on SF-268 CNS; 29.8 µM in the assay with T-47D breast; 27 µM in the assay on NCI/ADR-RES ovarian; 32.6 µM with IGROV1 ovarian. This compound also yielded a TGI with OVCAR-3 ovarian of 29.9 µM.

(Values after PubChem BioAssay (NCI).)
